Test results as given in PMC4757855, “Discovery of high affinity inhibitors of Leishmania donovani N-myristoyltransferase” (Medchemcomm, 2015).
“Also recorded” adds a separate entry of the source. Read-outs that look alike come from different tables or passages of the source.

Tests used:
PfNMT = molecular target: T1, PfNMT (Plasmodium falciparum, UniProt Q9U419); experiment: biochemical; format: biochemical; details: for PfNMT LE: LE = [–log(Ki)](1.374)/(no. of heavy atoms); for Ki: apparent Ki calculated from IC50 with Cheng–Prusoff equation
T1 sequence (Q9U419 1-410): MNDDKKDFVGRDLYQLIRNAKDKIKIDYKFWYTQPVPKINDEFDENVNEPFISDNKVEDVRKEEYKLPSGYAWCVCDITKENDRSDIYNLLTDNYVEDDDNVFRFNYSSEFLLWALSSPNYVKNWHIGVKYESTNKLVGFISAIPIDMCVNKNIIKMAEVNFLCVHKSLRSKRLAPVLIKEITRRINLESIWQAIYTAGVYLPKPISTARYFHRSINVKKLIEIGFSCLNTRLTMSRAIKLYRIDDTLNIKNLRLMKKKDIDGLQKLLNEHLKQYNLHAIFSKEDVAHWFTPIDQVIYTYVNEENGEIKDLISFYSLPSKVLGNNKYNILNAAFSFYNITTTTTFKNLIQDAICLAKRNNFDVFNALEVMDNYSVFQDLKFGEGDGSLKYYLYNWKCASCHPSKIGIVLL
Protocol: (§1) Enzyme assay information. All IC 50 determinations were carried out using a 7-diethylamine-3-(4’maleimidylphenyl)-4-methylcoumarin (CPM) fluorescence assay, as described by previously. 2–4 The HsNMT1, PfNMT and PvNMT assays are as described in the literature, for LdNMT the final enzyme concentration and peptide substrates are: [LdNMT]: 400 ng/mL; LdNMT Peptide Substrate: Homo sapiens […]
(§2) p60src (2-16) with sequence […]-NH 2 and the final concentration was 4.0 μM. IC 50 of an inhibitor was calculated by a nonlinear regression analysis using GraFit 7.0.1 version (Erithacus Software Limited, UK).The values are the mean value of two determinations; standard deviation is within 20% of the IC 50 unless […]
(§3) Ki values were calculated from the experimentally determined IC 50 values, the substrate concentration ([S]) and the Michaelis-Menten constant (K m) as described by […]

PvNMT = molecular target: T2, PvNMT (Plasmodium vivax, UniProt A5K1A2); experiment: biochemical; format: biochemical; details: for PvNMT LE: LE = [–log(Ki)](1.374)/(no. of heavy atoms); for Ki: apparent Ki calculated from IC50 with Cheng–Prusoff equation
T2 sequence (A5K1A2 1-410): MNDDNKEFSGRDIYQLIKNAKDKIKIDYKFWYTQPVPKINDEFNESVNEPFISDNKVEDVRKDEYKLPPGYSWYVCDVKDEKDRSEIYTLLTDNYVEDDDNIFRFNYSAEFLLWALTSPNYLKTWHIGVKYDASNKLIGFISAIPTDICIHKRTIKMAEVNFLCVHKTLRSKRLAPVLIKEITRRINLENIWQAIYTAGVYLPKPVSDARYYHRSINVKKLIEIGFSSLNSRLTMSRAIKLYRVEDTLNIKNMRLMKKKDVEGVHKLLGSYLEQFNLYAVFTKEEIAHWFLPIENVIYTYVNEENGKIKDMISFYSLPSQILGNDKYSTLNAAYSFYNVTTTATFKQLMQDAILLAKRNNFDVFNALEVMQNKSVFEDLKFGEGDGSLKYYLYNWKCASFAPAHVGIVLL
Protocol: as §1, §2, §3

LdNMT [1] = molecular target: LdNMT (Leishmania donovani, UniProt D0AB09); experiment: biochemical; format: biochemical; details: for Ki: apparent Ki calculated from IC50 with Cheng–Prusoff equation
Protocol: as §1
(§4) was 4.0 μM. IC 50 of an inhibitor was calculated by a nonlinear regression analysis using GraFit 7.0.1 version (Erithacus Software Limited, UK).The values are the mean […]
as §3

HsNMT1 = molecular target: T3, HsNMT1 (Homo sapiens, UniProt P30419); experiment: HsNMT1 enzyme assay (CPM fluorescence); format: biochemical; details: apparent Ki calculated from IC50 with Cheng–Prusoff equation, read-out: HsNMT Ki
T3 sequence (P30419 1-496): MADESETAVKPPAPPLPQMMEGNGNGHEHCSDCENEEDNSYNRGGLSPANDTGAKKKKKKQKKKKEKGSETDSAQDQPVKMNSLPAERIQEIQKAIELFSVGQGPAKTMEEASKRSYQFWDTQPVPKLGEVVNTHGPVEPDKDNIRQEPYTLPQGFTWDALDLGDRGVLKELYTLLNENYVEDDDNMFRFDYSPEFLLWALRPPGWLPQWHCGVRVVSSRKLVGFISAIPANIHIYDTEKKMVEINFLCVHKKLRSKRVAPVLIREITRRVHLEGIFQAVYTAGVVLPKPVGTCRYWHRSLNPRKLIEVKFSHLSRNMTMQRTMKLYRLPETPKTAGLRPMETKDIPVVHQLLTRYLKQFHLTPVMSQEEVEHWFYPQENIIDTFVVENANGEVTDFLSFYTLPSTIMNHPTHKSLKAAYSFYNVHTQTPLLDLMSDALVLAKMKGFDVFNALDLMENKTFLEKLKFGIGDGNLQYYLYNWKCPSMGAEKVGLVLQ
Protocol: Enzyme assay information. All IC 50 determinations were carried out using a 7-diethylamine-3-(4’maleimidylphenyl)-4-methylcoumarin (CPM) fluorescence assay, as described by previously. […]
IC 50 of an inhibitor was calculated by a nonlinear regression analysis using GraFit 7.0.1 version (Erithacus Software Limited, UK).The values are the mean […]
as §3

L. donovani amastigotes = experiment: L. donovani ex-vivo amastigotes inhibition assay (alamar blue); format: cell-based, Leishmania donovani; details: for EC50: Leishmania donovani, ex vivo L. donovani amastigotes, 72 hour incubation, read-out: Ld EC50
Protocol: L. donovani ex-vivo amastigotes inhibition assay. Assays were carried out as
described by Paape and colleagues.
recorded with a 590nm±10nm bandpass filter, POLARstar Optima). Parasites cultured
[1-(readout-medium)/(positive-medium)] x 100%. Assays were carried out in
Macrophage toxicity test. Assays were carried out as described by Paape and […]

LdNMT [2] = experiment: biochemical; format: biochemical
Protocol: as §1, §4, §3

[3] = system: bone marrow-derived macrophage (BMDM); details: 72 h
Protocol: (§5) colleagues.6 Briefly, bone marrow-derived macrophage (BMDM, 4.2 × 10^4/well of
(§6) 96-well plate ) were incubated at the relevant concentrations of test compounds in
(§7) DMEM medium containing 4% L929 cell and 10% FCS (fetal calf serum). Cells were
(§8) incubated at 37 °C and 5% CO2 for 72 hours. Aalamar blue (10% v/v) was added to
(§9) measuring the fluorescence as described above. Medium without cells containing the
(§10) corresponding concentration of compound was used as a medium control. Assays
were performed in duplicate.

[4] = Stability on incubation over a wide pH range; format: physicochemical; details: 37 °C, pH 1–10, 24 hours, data not shown
Source text: The binding mode of 10j to Leishmania major NMT (98% sequence identity to LdNMT with closely superimposable ligand binding sites)[14],[29] was confirmed by determination of the crystal structure of the ternary complex of LmNMT, myrisotyl-CoA and 10j (PDB ID:; 5a27). The inhibitor binds in the expected site adjacent to the enzyme's C-terminal carboxylate to which its piperidine forms an ion pairing interaction. This and other key interactions are conserved in a related series in PvNMT.[24] […] This ‘ring opening’ phenomenon has been observed in related compounds within the program,[27] although to our knowledge, it has not been reported elsewhere. The origin of the ring-opened species observed in the crystals remains unclear, and further investigation is underway to determine the cause of this discrepancy (such as potential radiation damage). As characterisation of the compounds was consistent with the proposed oxadiazoles, the development of the series was continued.

[5] = system: bone marrow-derived macrophage (BMDM); experiment: Macrophage toxicity test (alamar blue); details: top concentration tested 90 μM
Protocol: as §5, §6, §7, §8, §9, §10
were performed in duplicate.

Chain of LdNMT (Leishmania donovani, UniProt D0AB09) (D0AB09 entry or part of it): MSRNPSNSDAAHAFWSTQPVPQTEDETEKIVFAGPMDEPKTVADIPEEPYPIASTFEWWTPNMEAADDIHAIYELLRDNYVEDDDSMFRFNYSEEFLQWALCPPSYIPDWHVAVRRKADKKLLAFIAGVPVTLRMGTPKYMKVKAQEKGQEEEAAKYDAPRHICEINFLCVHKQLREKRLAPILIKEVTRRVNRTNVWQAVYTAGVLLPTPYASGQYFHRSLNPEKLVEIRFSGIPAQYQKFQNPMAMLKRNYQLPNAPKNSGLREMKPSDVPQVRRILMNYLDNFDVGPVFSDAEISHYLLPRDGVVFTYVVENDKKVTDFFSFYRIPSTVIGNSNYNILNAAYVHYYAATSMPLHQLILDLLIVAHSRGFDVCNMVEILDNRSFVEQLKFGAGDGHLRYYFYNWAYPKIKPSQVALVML

With `COc1cccc(COC(=O)c2sc3ccccc3c2OC2CCNCC2)c1` [Compound 1] the “PfNMT LE” value (PfNMT) was 0.30, the Ki (PfNMT) was 0.83 µM and the “PvNMT LE” value (PvNMT) was 0.35. It also gave a Ki (PvNMT) of 0.08 µM, a Ki (LdNMT [1]; […], read-out: LdNMT Ki) of 5.82 µM and a Ki (HsNMT1) of 3.2 µM.
With `COc1cccc(COC(=O)c2sccc2OC2CCNCC2)c1` [Compound 5] the Ki (PfNMT) was > 100 µM, the “PvNMT LE” value (PvNMT) was 0.30 and the Ki (PvNMT) was 6.5 µM. For the same compound, the “LdNMT LE” value (LdNMT [1]) was 0.35, the “improvement in LdNMT enzyme affinity” value (LdNMT [1]) was 8 fold and the Ki (LdNMT [1]; […], read-out: LdNMT Ki) was 0.73 µM. The IC50 (LdNMT [1]; experimentally determined, substrate 4.0 μM) was 0.82 ± 0.14 µM and the Ki (HsNMT1) was > 100 µM.
With `COc1cccc(COC(=O)c2ccccc2OC2CCNCC2)c1` [Compound 6] the “PfNMT LE” value (PfNMT) was 0.29, the Ki (PfNMT) was 6 µM and the “PvNMT LE” value (PvNMT) was 0.31. For the same compound, the Ki (PvNMT) was 2.42 µM, the “LdNMT LE” value (LdNMT [1]) was 0.36 and the Ki (LdNMT [1]; […], read-out: LdNMT Ki) was 0.28 µM. The Ki (HsNMT1) was > 100 µM.
For `COc1cccc(Cc2noc(-c3ccccc3OC3CCNCC3)n2)c1` [Compound 10a], the EC50 (L. donovani amastigotes) was > 30 µM, the “LdNMT LE” value (LdNMT [1]) was 0.37 and the “improvement in LdNMT enzyme affinity” value (LdNMT [1]; 5 relative to 1, 10a relative to 6) was ~ 4 fold. For the same compound, the “selectivity in favour of the parasite enzyme (LdNMT over HsNMT)” value (LdNMT [2]) was 20 fold and the Ki (HsNMT1) was 1.24 µM.
For `COc1cccc(Cc2noc(-c3cccc(OC)c3OC3CCNCC3)n2)c1` [Compound 10b], the “LdNMT LE” value (LdNMT [1]) was 0.26, the Ki (LdNMT [1]; […], read-out: LdNMT Ki) was 4.02 µM and the Ki (HsNMT1) was 7.23 µM.
For `COc1cccc(Cc2noc(-c3cccc(C)c3OC3CCNCC3)n2)c1` [Compound 10c], the “LdNMT LE” value (LdNMT [1]) was 0.29, the Ki (LdNMT [1]; […], read-out: LdNMT Ki) was 1.43 µM and the Ki (HsNMT1) was 7.44 µM.
For `COc1cccc(Cc2noc(-c3ccc(C)cc3OC3CCNCC3)n2)c1` [Compound 10d], the “LdNMT LE” value (LdNMT [1]) was 0.26, the Ki (LdNMT [1]; […], read-out: LdNMT Ki) was 5.18 µM and the Ki (HsNMT1) was 4.64 µM.
For `COc1cccc(Cc2noc(-c3ccc(OC)cc3OC3CCNCC3)n2)c1` [Compound 10e], the Ki (LdNMT [1]; […], read-out: LdNMT Ki) was 3.04 µM.
With `COc1cccc(Cc2noc(-c3ccc(F)cc3OC3CCNCC3)n2)c1` [Compound 10g] the “Macrophage LD50” value [3] was 29.5 µM.
Work on `COc1cccc(Cc2noc(-c3ccc(Br)cc3OC3CCNCC3)n2)c1` [Compound 10h] yielded a Ki (LdNMT [1]; […], read-out: LdNMT Ki) of 0.68 µM.
`COc1cccc(Cc2noc(-c3cc(C)ccc3OC3CCNCC3)n2)c1` [Compound 10i] gave a Ki (LdNMT [1]; […], read-out: LdNMT Ki) of 0.24 µM.
In the case of `COc1cccc(Cc2noc(-c3cc(Cl)ccc3OC3CCNCC3)n2)c1` [Compound 10j], the “Macrophage LD50” value [3] is reported as 18.0 µM, the degradation on incubation [4] is reported as “no degradation” and the EC50 (L. donovani amastigotes) is reported as 6.7 µM.
With `COc1cccc(Cc2noc(-c3cc(OC)ccc3OC3CCNCC3)n2)c1` [Compound 10k] the “Macrophage LD50” value [3] was 27.9 µM and the EC50 (L. donovani amastigotes) was 13.5 µM.
In the case of `Cc1nn(C)c(C)c1Cc1nnc(-c2cc(Cl)ccc2OC2CCNCC2)o1` [Compound 13], the “Macrophage LD50” value [3] is reported as >90 µM, the EC50 (L. donovani amastigotes) is reported as > 50 µM and the “effect against ex vivo amastigotes” value (L. donovani amastigotes; up to 50 μM) is reported as “no observed effect; also recorded: failed to inhibit”. The Ki (LdNMT [1]; […], read-out: LdNMT Ki) was 0.01 µM and the “macrophage toxicity” value [5] was “did not display any macrophage toxicity; also recorded: no macrophage toxicity”.
